Assay type in all cases: in vivo
Test [1] concerns protein concentration in the aqueous humor. The experiment in a line: Protein measurement in aqueous humor, rabbit paracentesis model. Conditions: second paracentesis; for Protein level in aqueous humor, Mean: group mean; for Protein level in aqueous humor: individual eye. The method, then: (§1) Each rabbit was placed in a restraint device and tagged with the alphanumeric code. The formulations were instilled (50 μl) into the conjunctival sac of both eyes 180, 120, 90 and 30 min before the first paracentesis; then 15, 30, 90 min after the first paracentesis. To perform the first paracentesis the animals were anaesthetized by intravenous injection of 5 mg/kg Zoletil® (Virbac; 2.5 mg/kg tiletamine HCl and 2.5 mg/kg zolazepam HCl) and one drop of local anesthetic (Novesina®, Novartis) was administered to the eye. Anterior chamber paracentesis was performed with a 26 G needle attached to a tuberculin syringe; the needle was introduced into the anterior chamber through the cornea, taking care not to damage the tissues. Two hours after the first paracentesis, the animals were sacrificed with 0.4 ml Tanax® (Intervet International B.V.) and the second paracentesis was performed. About 100 μl of aqueous humor were removed at the second paracentesis. Aqueous humor was immediately split in four aliquots and stored at −80° C. until analysis. Then both eyes were enucleated and the iris-ciliary body was carefully excised, placed in polypropylene tubes, and stored at −80° C. until analysis.
For protein concentration determination in the aqueous humor we used the Protein Quantification Kit (Fluka; Cat. No. 77371; Lot. No. 1303129). Five microliters of aqueous humor were diluted to 100 μl with water. Twenty microliters of samples and of standards were load into a 96-well plate and recorded in a plate layout. Samples were treated following the assay procedure described in the kit. A microplate reader (GDV, Italy; model DV 990 B/V6) set at 670 nm was used for making the calibration and analyzing the samples.

The test system of test [2] is PGE2 in the aqueous humor. The experiment in a line: Prostaglandin E2 (PGE2) measurement in aqueous humor, rabbit paracentesis model. Conditions: second paracentesis; for PGE2 level in aqueous humor, Mean: group mean; for PGE2 level in aqueous humor: individual eye. On the procedure:
as §1
For the quantitative determination of PGE2 in the aqueous humor we used the PGE2 Immunoassay kit (R&D Systems; Cat. No. KGE004; Lot. No. 240010). Eleven microliters or 16 μl of aqueous humor were diluted to 110 μl or 160 μl with the calibrator diluent solution provided with the kit. One hundred microliters of samples and of standards were load into a 96-well plate and recorded in a plate layout. Samples were treated following the assay procedure described in the kit. A microplate reader (GDV, Italy; model DV 990 B/V6) set at 450 nm (wavelength correction at 540 nm) was used for making the calibration and analyzing the samples.

Test [3] concerns rabbit paracentesis model. Put plainly: Pupillary diameter measurement, rabbit paracentesis model. Conditions: individual eye; for Pupillary diameter T1: −180 min: 50 μl drops, basal; for Pupillary diameter T2: −5 min: 5 min before first paracentesis; for Pupillary diameter T3: +115 min: 5 min before second paracentesis; for Pupillary diameter Δ(T3 − T1): +115 min minus −180 min. The method, then: as §1
The pupillary diameter of both eyes was measured with a Castroviejo caliper 180 min and 5 min before the first paracentesis and 5 min before the second paracentesis.

In test [4] the test system is rabbit paracentesis model. The experiment in a line: Clinical evaluation (slit lamp clinical score), rabbit paracentesis model. More on the design: key to Clinical Score −180 min / Clinical Score −5 min / Clinical Score +115 min: 0: normal; 1: discrete dilatation of iris and conjunctival vessels; 2: moderate dilatation of iris and conjunctival vessels; 3: intense iridal hyperemia with flare in the anterior chamber; 4: intense iridal hyperemia with flare in the anterior chamber and presence of fibrinous exudates. The settings on record: for Clinical Score −5 min: 5 min before first paracentesis; for Clinical Score −5 min / Clinical Score +115 min / Clinical Score −180 min: individual eye; for Clinical Score +115 min: 5 min before second paracentesis; for Clinical Score −180 min: basal.

Test [5] relates to leukocytes (PMN) in aqueous humor. The experiment in a line: Leukocytes (PMN) measurement in aqueous humor, rabbit paracentesis model. Conditions: second paracentesis; for PMN numbers in aqueous humor: individual eye. The method, then: as §1
For the determination of the number of leukocytes we used a haemocytometer (Improved Neubauer Chamber; Bright-line, Hausser Scientific) and a Polyvar 2 microscope (Reichert-Jung).

Test [6] has as its system MPO activity in iris-ciliary body. The experiment in a line: Myeloperoxidase (MPO) activity in iris-ciliary body, rabbit paracentesis model. Conditions: for MPO Unit/g: iris-ciliary body samples collected after the second paracentesis, individual eye samples; for MPO activity in iris-ciliary body, Mean: after second paracentesis, group mean. The method, then: as §1
The activity of MPO was measured as previously described by Williams et al.[5] The iris-ciliary bodies were carefully dried, weighed and immersed in 1 ml of hexa-decyl-trimethyl-ammonium bromide solution. Then, the samples were sonicated for 10 sec on ice by a ultrasound homogenizer (HD 2070, Bandelin electronic), freeze-thawed three times, sonicated for 10 sec and centrifuged at 14,000 g for 10 min to remove cellular debris. An aliquot of the supernatant ([…] was diluted to 3 ml with the o-dianisidine 2HCl/H2O2 solution. The change in absorbance at 460 nm was continuously monitored for 5 min by a spectrophotometer (UV/Vis Spectrometer Lambda EZ 201; Perkin Elmer). The slope of the line (Δ/min) was determined for each sample and used to calculate the number of units of MPO in the tissue as follows:
were ε=11.3 mM^−1. Values were expressed as units of MPO/g of tissue.

The mark [7] stands for this setting: 0.5% topical formulation, +115 min.

SMILES strings stand for the structures. Several values for one entry are separate records, joined by “and”; a condition that tells them apart may be missing. Equal entries are not always repeated.

`CC(C(=O)O)c1ccc(-c2ccccc2)c(F)c1` (centres unmarked) [F, flurbiprofen, reference compound]: in test [1] (0.03% topical formulation), the “Protein level in aqueous humor, Mean” value turned out to be 20.910 mg/mL; the “Protein level in aqueous humor” value was 20.78 mg/mL and 28.80 mg/mL and 23.41 mg/mL and 20.21 mg/mL and 17.53 mg/mL and 15.12 mg/mL and 20.52 mg/mL. In test [2] (0.03% topical formulation), the “PGE2 level in aqueous humor, Mean” value came to 1.189 ng/mL; the “PGE2 level in aqueous humor” value is 1.04 ng/ml and 0.75 ng/ml and 0.85 ng/ml and 1.11 ng/ml and 2.11 ng/ml (2×) and 0.93 ng/ml and 0.61 ng/ml. Moreover, in test [3] (0.03% topical formulation), the “Pupillary diameter T1: −180 min” value was 5.0 mm (2×) and 7.0 mm and 6.0 mm (4×) and 5.5 mm; the “Pupillary diameter T2: −5 min” value was 6.0 mm (3×) and 6.5 mm (3×) and 7.0 mm and 5.5 mm; the “Pupillary diameter T3: +115 min” value was 4.0 mm and 3.5 mm and 5.5 mm (2×) and 5.0 mm (2×) and 4.5 mm and 6.0 mm; the “Pupillary diameter Δ(T3 − T1)” value was −1.0 mm (3×) and −1.5 mm (3×) and 0.0 mm (2×). Besides, in test [4] (0.03% topical formulation), the “Clinical Score −5 min” value stood at 0, the “Clinical Score +115 min” value is recorded as 2 and the “Clinical Score −180 min” value was found to be 0. The “Percentage of eyes with clinical score 2” value in test [4] (0.03% topical formulation, +115 min) is listed as 100%. In addition, the “Percentage of eyes with clinical score 0” value in test [4] (0.03% topical formulation, −5 min) came out at 100%. The “Percentage of eyes with clinical score 0” value in test [4] (0.03% topical formulation, −180 min (basal)) was found to be 100%. The “PMN numbers in aqueous humor” value in test [5] (0.03% topical formulation) was 50 number/μl and 40 number/μl (2×) and 20 number/μl (2×) and 10 number/μl and 30 number/μl. In test [6] (0.03% F), the “MPO Unit/g” value is 1.10 Unit/g and 1.70 Unit/g and 0.34 Unit/g and 0.75 Unit/g and 0.74 Unit/g and 0.63 Unit/g and 0.73 Unit/g and 1.27 Unit/g. Moreover, in test [6] (0.03% topical formulation), the “MPO, p vs CTR” value was less than 0.01 and the “MPO activity in iris-ciliary body, Mean” value amounted to 0.906 MPO Unit/g.
For `CCOC(=O)O[C@]1(C(=O)OCCl)CC[C@H]2[C@@H]3CCC4=CC(=O)C=C[C@]4(C)[C@H]3[C@@H](O)C[C@@]21C` [LE, loteprednol etabonate, reference compound], in test [1] (0.5% topical formulation), the “Protein level in aqueous humor, Mean” value was 33.905 mg/mL; the “Protein level in aqueous humor” value was 36.14 mg/mL and 39.10 mg/mL and 34.69 mg/mL and 26.10 mg/mL and 26.30 mg/mL and 28.16 mg/mL and 40.90 mg/mL and 39.85 mg/mL. Besides, in test [2] (0.5% topical formulation), the “PGE2 level in aqueous humor, Mean” value came to 0.672 ng/mL; the “PGE2 level in aqueous humor” value is “^2N/D and 0.23 ng/ml and 0.68 ng/ml and 1.10 ng/ml”. Further, in test [3] (0.5% topical formulation), the “Pupillary diameter T1: −180 min” value is 6.0 mm (3×) and 6.5 mm (5×); the “Pupillary diameter T2: −5 min” value was 6.0 mm (3×) and 6.5 mm (5×); the “Pupillary diameter T3: +115 min” value was 4.5 mm and 5.0 mm (2×) and 5.5 mm (2×) and 6.0 mm (3×); the “Pupillary diameter Δ(T3 − T1)” value is −1.5 mm (2×) and −1.0 mm (3×) and 0.0 mm and −0.5 mm (2×). In test [4] (0.5% topical formulation), the “Clinical Score −5 min” value came out at 0; the “Clinical Score +115 min” value was 2 (2×) and 1 (6×); the “Clinical Score −180 min” value was 0. Also, in test [4] (setting [7]), the “Percentage of eyes with clinical score 1” value came to 75% and the “Percentage of eyes with clinical score 2” value was 25%. The “Clinical score, p versus CTR” value in test [4] (0.5% topical formulation, Kruskal-Wallis, Dunn) is less than 0.05. The “Percentage of eyes with clinical score 0” value in test [4] (0.5% topical formulation, −5 min) was determined as 100%. The “Percentage of eyes with clinical score 0” value in test [4] (0.5% topical formulation, −180 min (basal)) is 100%. Moreover, the “PMN numbers in aqueous humor, Mean” value in test [5] (0.5% topical formulation, group mean) is reported as 28.333 number/μl. For the same molecule, the “PMN numbers in aqueous humor” value in test [5] (0.5% topical formulation) was 40 number/μl (2×) and 20 number/μl (3×) and 30 number/μl. Moreover, in test [6] (0.5% LE), the “MPO Unit/g” value is 0.30 Unit/g and 0.51 Unit/g and 0.81 Unit/g and 0.60 Unit/g and 0.73 Unit/g and 1.01 Unit/g. The “MPO activity in iris-ciliary body, Mean” value in test [6] (0.5% topical formulation) stood at 0.661 MPO Unit/g.

The record behind these values is patent US20110077270A1, “Compositions and Methods for Treating Ocular Inflammation with Lower Risk of Increased Intraocular Pressure” (priority 2009, published 2011).
